In US20020182655A1, “Method for identifying ligands for G protein-coupled receptors” (priority 2001, published 2002):

How the values were obtained:
hGPR 3 = hGPR 3 (Homo sapiens, UniProt P46089); test: Ca2+ FLIPR assay in HEK293 cells transiently transfected with hGPR 3; format: cell-based
Protocol: (§1) Transient transfections were carried out by incubating 5×10^5 HEK293 cells or 2×10^5 CHO-K1 cells in 6-well plates at 37° C. for 24 hours. The cells were then transfected with 1 to 2 μg of a vector, pcDNA 3.1, into which a GPR 3 gene was inserted by Hind III and Xba I sites, under the control of pcDNA 3.1. It is also expected that GPR 3, 6, or 12 may be cloned under control of the eukaryotic CMV promoter or of a control plasmid without corresponding cloned insert. The HEK293 cells were transfected with the aid of FuGene 6 transfection reagent (commercially available, for example from Roche Diagnostics) and the CHO cells were transfected with the aid of Lipofectamine reagent (commercially available, for example from GIBCO-BRL), in each case according to the manufacturer's instructions.
(§2) HEK293 cells were transferred to 96-well microtiter plates 24 hours after transient transfection. The cell density was 80,000 cells per well. The microtiter plates were coated with poly-D-lysine. […] The compounds to be analyzed, i.e., S1P, DHS1P, suramin, and compounds from the lipid library, were present as 2 mM stock solutions in DMSO (dimethyl sulfoxide). […]
(§3) The FLIPR was programmed such that 50 μl of the triple-concentrated suramin stock solution were added to the cells, leading to a final suramin concentration of 300 μM. Fluorescence was measured in 3 second intervals for the first 3 minutes and in 10 second intervals for the last 2 minutes. Ca^2+ signals of ligands were determined similarly.
(§4) The fluorescence data of the 18 to 36 second time interval were used to determine agonist activity.
(§5) Regarding the FLIPR assay, HEK293 cells were transferred to 96-well microtiter plates 24 hours after transient transfection. […] Compounds to be analyzed, e.g., S1P and DHS1 P, were added at this stage. Fluorescence was measured by means of a fluorometric imaging plate reader in 3 second intervals for the first 3 minutes and in 10 second intervals for the last 2 minutes. The fluorescence data of the 18 to 36 second time interval were used to determine agonist activity. […]

hGPR 6 = hGPR 6 (Homo sapiens, UniProt P46095); test: Ca2+ FLIPR assay in HEK293 cells transiently transfected with hGPR 6; format: cell-based
Protocol: as §1, §2, §3, §4, §5

hGPR 12 = target: T1, hGPR 12 (Homo sapiens, UniProt P47775); test: Ca2+ FLIPR assay in HEK293 cells transiently transfected with hGPR 12; format: cell-based
T1 sequence (P47775 1-334): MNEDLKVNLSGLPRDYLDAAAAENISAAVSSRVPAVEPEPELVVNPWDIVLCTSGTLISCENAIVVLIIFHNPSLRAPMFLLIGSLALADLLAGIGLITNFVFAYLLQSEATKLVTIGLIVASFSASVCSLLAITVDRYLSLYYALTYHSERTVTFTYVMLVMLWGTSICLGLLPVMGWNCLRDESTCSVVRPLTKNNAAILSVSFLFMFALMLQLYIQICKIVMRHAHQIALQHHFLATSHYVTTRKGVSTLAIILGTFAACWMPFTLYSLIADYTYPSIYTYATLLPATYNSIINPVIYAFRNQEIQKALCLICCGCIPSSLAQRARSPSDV
Protocol: as §1, §2, §3, §4, §5

HEK293 cells = test: Ca2+ release in HEK293 cells; format: cell-based, human; conditions: for sensitivity of induced Ca2+ release to pertussis toxin: signal runs via Gαi-type G proteins
Protocol: HEK293 cells were transferred to 96-well microtiter plates 24 hours after transient transfection. The cell density was 80,000 cells per well. The microtiter plates were coated with poly-D-lysine. The cells were kept in medium containing 1% (v/v) FCS (fetal calf serum) for 18 to 24 hours. After trypsinization, the cells were suspended in DMEM (Dulbecco's modified Eagle's medium) that also contained 25 mM HEPES (N-2-hydroxyethylpiperazine-N′-2-ethanesulfonic acid) pH 7.0, 1% (v/v) FCS, […] and 4 μM dye Fluo4 (fluorescent calcium indicator from Molecular Dynamics), and then incubated at 37° C. with 5% (v/v) CO2 for 1 hour. The cells were then washed 3 times with PBS (phosphate-buffered saline) containing 1 mM MgCl2, 1 mM EDTA and 0.4 mg/ml FAF-BSA (fatty acid-free bovine serum albumin). After the last washing step, the volume was 100 ,μl per […]. The compounds to be analyzed, i.e., S1P, DHS1P, suramin, and compounds from the lipid library, were present as 2 mM stock solutions in DMSO (dimethyl sulfoxide). These stock solutions were diluted 1:500 with the PBS solution containing 1 mM MgCl2, 1 mM EDTA and 0.4 mg/ml FAF-BSA. Lipids were present in the form of triple-concentrated 900 μM solutions prior to the assay. Suramin (Sigma) was prepared in the form of a triple-concentrated 900 μM solution in PBS containing 1 mM MgCl2, 1 EDTA, and 0.4 mg/ml FAF-BSA.
as §3, §4
Regarding the FLIPR assay, HEK293 cells were transferred to 96-well microtiter plates 24 hours after transient transfection. The cell density was 80,000 cells per well. The microtiter plates were coated with poly-D-lysine. The cells were kept in medium containing 1% (v/v) FCS (fetal calf serum) for 18 to 24 hours. […] Compounds to be analyzed, e.g., S1P and DHS1 P, were added at this stage. Fluorescence was measured by means of a fluorometric imaging plate reader in 3 second intervals for the first 3 minutes and in 10 second intervals for the last 2 minutes. The fluorescence data of the 18 to 36 second time interval were used to determine agonist activity. The reader itself equalizes internally the zero values.

Sequence of hGPR 6 (P46095 whole entry): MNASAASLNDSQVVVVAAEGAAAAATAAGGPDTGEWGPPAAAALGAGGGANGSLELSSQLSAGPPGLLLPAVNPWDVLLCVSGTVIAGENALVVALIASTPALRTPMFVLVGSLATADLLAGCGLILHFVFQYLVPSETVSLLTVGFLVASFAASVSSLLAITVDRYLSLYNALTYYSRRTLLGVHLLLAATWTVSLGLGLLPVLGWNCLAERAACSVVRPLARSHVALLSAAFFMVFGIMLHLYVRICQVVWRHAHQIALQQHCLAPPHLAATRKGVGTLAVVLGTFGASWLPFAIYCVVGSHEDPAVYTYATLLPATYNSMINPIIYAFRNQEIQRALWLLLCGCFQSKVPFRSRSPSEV
Sequence of hGPR 3 (P46089 whole entry): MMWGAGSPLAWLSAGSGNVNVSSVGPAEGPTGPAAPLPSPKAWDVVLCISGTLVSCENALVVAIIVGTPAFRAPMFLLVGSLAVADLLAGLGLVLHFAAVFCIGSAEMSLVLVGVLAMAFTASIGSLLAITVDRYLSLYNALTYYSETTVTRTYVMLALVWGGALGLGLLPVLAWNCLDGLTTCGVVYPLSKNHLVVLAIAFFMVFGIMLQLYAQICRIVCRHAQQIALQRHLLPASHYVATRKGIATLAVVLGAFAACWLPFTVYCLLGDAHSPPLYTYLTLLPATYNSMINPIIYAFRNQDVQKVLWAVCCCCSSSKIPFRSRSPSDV

SMILES | identification as ligand (agonist activity, Ca2+ signal) (hGPR 3) | identification as ligand (agonist activity, Ca2+ signal) (hGPR 6) | identification as ligand (agonist activity, Ca2+ signal) (hGPR 12) | Ca2+ release (HEK293 cells) | sensitivity of induced Ca2+ release to pertussis toxin (HEK293 cells) | EC50 (hGPR 3; Ca2+ FLIPR) | EC50 (hGPR 6; Ca2+ FLIPR) | EC50 (hGPR 12; Ca2+ FLIPR)
CCCCCCCCCCCCCCC[C@@H](O)[C@@H](N)COP(=O)(O)O [DHS1P, dihydrosphingosine 1-phosphate] | physiological ligands | physiological ligands | physiological ligands | cause Ca^2+release | pertussis toxin-sensitive | – | – | –
CCCCCCCCCCCCC/C=C/[C@@H](O)[C@@H](N)COP(=O)(O)O [S1P, sphingosine 1-phosphate] | physiological ligands | physiological ligands | physiological ligands | cause Ca^2+release | pertussis toxin-sensitive | < 100 nM | < 100 nM | < 100 nM
